Each compound was assayed on E. multilocularis metacestodes (assay: PGI assay: phosphoglucose isomerase release from damaged metacestodes). Conditions: 10 μM, 5 days, single wells, relative to DB1127 (10 μM).
Type: cell-based, Echinococcus multilocularis
Outline: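 Damage readout: PGI enzyme release after 5-day in vitro culture of 2–4 mm metacestode vesicles (H95 strain, from i.p.-infected BALB/c mice) with compound. Primary screen: 10 μM per single well, 0.1% DMSO negative control. EC50 calculated from PGI release data.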

In order of rising “PGI (% of DB1127 at 10 uM)” value:
1. CCOc1cc(Cl)c(C(C)NC(=O)c2ccccc2)cc1OCC (stereo not drawn) [MMV665800]  -123.29%
2. O=C(c1ccccc1F)N(Cc1ccc(Cl)cc1)c1ccccn1 [MMV665899]  -103.42%
3. Cn1c(=O)c2cc(C(=O)NCCCN3CCCCCC3)sc2c2ccccc21 [MMV019313]  -53.66%
4. CCN(CC)CCCNc1ccnc2cc3ccccc3cc12 [MMV665783]  -52.95%
5. COc1ccc(-c2c(C)nn3c(N)c(C#N)cnc23)cc1OC [MMV396797]  -51.42%
6. c1ccc(Cn2c(N=Nc3c(Nc4ccccc4)ccc4ccccc34)nc3ccccc32)cc1 [MMV666023]  -50.58%
7. COc1ccccc1CNC(=O)CCn1c(=O)[nH]c2ccccc2c1=O [MMV665916]  -47.23%
8. Cc1ccc2cc3c(N)c4c(C)ccc(C)c4nc3nc2c1 [MMV666079]  -43.85%
9. O=C(Nc1ccc(N2CCCCC2)c(Cl)c1)c1ccc(Br)o1 [MMV019700]  -40.52%
10. CCOc1ccc2c(c1)CN(Cc1ccc(Cl)cc1)CO2 [MMV000443]  -40.44%
11. CCCc1c(CC)c(=N)c2ccccc2n1C [MMV008416]  -40.39%
12. CCCCNc1nc(NC(C)(C)C)nc(NC(C)(C)C)n1 [MMV665864]  -36.23%
13. COc1ccc(CNC2CCN(c3ccc(NC(=O)c4cccc(Cl)c4)cc3)CC2)cc1OC [MMV666067]  -35.43%
14. COc1ccc2nc(C)cc(Nc3ccc(Cl)cc3)c2c1 [MMV007875]  -32.27%
15. CNCCCNc1ccnc2cc(Cl)ccc12 [MMV020500]  -31.62%
16. O=C(Nc1ccc(-c2nc3cc4ccccc4cc3[nH]2)cc1)c1cccc(Br)c1 [MMV019241]  -30.92%
17. CCOc1c(Cl)cc(CNC(C)C(O)c2ccccc2)cc1OC (stereo not drawn) [MMV665857]  -30.92%
18. CCCCCCC(O)(c1ccc(F)cc1)C(CN1CCOCC1)c1ccccc1.Cl (stereo not drawn) [MMV000621]  -30.63%
19. CSc1ccccc1C(=O)Nc1nc(-c2ccccn2)cs1 [MMV001246]  -29.53%
20. CCOc1cccc2sc(N(Cc3cccnc3)C(=O)C3CCCCC3)nc12 [MMV001230]  -26.73%
21. CCN1CCN(Cc2ccc(NC(=O)c3cc4ccc5cccnc5c4[nH]3)cc2)CC1 [MMV020548]  -26.47%
22. COc1cccc(C(=O)NC(c2ccc(C)cc2)c2cc(Cl)c3cccnc3c2O)c1 (stereo not drawn) [MMV665969]  -25.94%
23. CN(C)CCCNc1c2ccccc2nc2ccccc12 [MMV000448]  -25.46%
24. Cc1ccc(Nc2nc(-c3ccccn3)cs2)cc1 [MMV007907]  -25.32%
25. CCOc1ccc(-c2nonc2NC(=O)c2cccc(C)c2)cc1OCC [MMV665805]  -25.24%
26. CCCCCCOC(=O)C1=C(C)NC(=O)NC1c1ccccc1F (stereo not drawn) [MMV007686]  -24.58%
27. O=C(CSc1ccc2nnc(-c3cccc(F)c3)n2n1)Nc1ccc2c(c1)OCO2 [MMV665918]  -24.34%
28. CC1(c2ccccc2)Nc2ccccc2-c2nc3ccccc3n21 (stereo not drawn) [MMV396715]  -22.40%
29. CCOc1cc2c(cc1OCC)C(c1cc(Cl)c(O)c(OCC)c1)NCC2 (stereo not drawn) [MMV000481]  -21.47%
30. CCC1(C)CC(CCNCc2ccccc2O)(c2ccc(C)cc2)CCO1 (stereo not drawn) [MMV019406]  -21.13%
31. CCOC(=O)c1cn(CC)c2cc(N3CCCCC3)c(F)cc2c1=O [MMV665827]  -20.29%
32. Nc1nc(Nc2cccc(F)c2)nc2ccccc12 [MMV080034]  -19.84%
33. O=C(O)C(=O)O.Oc1ccccc1CN1CCN(C(c2ccccc2)c2ccccc2)CC1 [MMV011795]  -19.79%
34. O=c1c2c([nH]c3ccccc13)CCCC2 [MMV665843]  -19.31%
35. CCN(CC)CCn1c(=N)n(CC(O)c2ccc(Cl)c(Cl)c2)c2ccccc21.Cl (stereo not drawn) [MMV000248]  -18.11%
36. COc1cccc(NC(=O)Cn2c(C)c(C#N)c3ccccc32)c1 [MMV665826]  -17.93%
37. COc1ccc(CCn2c(=N)c(C(=O)NCc3cccnc3)cc3c(=O)n4cccc(C)c4nc32)cc1 [MMV667488]  -13.42%
38. COc1cc(C(=O)Nc2nc3c(cc4c5c(cccc53)CC4)s2)cc(OC)c1OC [MMV396665]  -11.85%
39. CCOC(=O)C1=C(C)N=c2sc(=Cc3cc(Cl)ccc3O)c(=O)n2C1c1ccc(OC)cc1 (stereo not drawn) [MMV665971]  -11.30%
40. CCn1nc(-c2ccc(C(=O)OC)cc2)nc2c(=O)n(C)c(=O)nc1-2 [MMV306025]  -10.99%
41. COc1cc2c3cc1Oc1c(OC)c(OC)cc4c1C(Cc1ccc(O)c(c1)Oc1ccc(cc1)CC3N(C)CC2)N(C)CC4.Cl (stereo not drawn) [MMV007474]  -10.35%
42. COc1cc(CNCCc2ccc(Cl)cc2)cc(OC)c1O [MMV128432]  -10.12%
43. COc1ccc(-c2cc3c(nn2)-c2ccccc2C3=O)cc1 [MMV666026]  -10.04%
44. COc1ccccc1CNC(=O)C1c2ccccc2C(=O)N(CC(C)C)C1c1cccs1 (stereo not drawn) [MMV000648]  -8.86%
45. O=C(NC1CCCC1)c1ccc(N2CCC(NCc3cccc(C(F)(F)F)c3)CC2)cc1 [MMV666070]  -8.11%
46. COc1cc2cc(C(=O)Nc3ccccc3)c(N)nc2cc1OC [MMV006767]  -7.82%
47. COc1ccc(N2CCN(C(CNC(=O)C3CCCCC3)c3ccc4c(c3)OCO4)CC2)cc1 (stereo not drawn) [MMV019662]  -7.72%
48. Cc1cc(N2CCN(C3CCCC3)CC2)n2c(nc3ccccc32)c1C#N [MMV006706]  -7.43%
49. O=C1c2ccccc2-c2nnc(-c3ccc(Br)cc3)cc21 [MMV665934]  -7.23%
50. COc1cc(-c2nc(-c3ccc(Sc4ccccc4)cc3)c(-c3ccccc3)[nH]2)cc(OC)c1O [MMV007273]  -7.16%
51. Cc1ccc(-c2nc3ccccc3o2)cc1NCc1cc(Cc2ccccc2)ccc1O [MMV020912]  -2.94%
52. COc1ccc(CN2CCCC(C(=O)c3ccc(C(F)(F)F)cc3)C2)c(O)c1 (stereo not drawn) [MMV666060]  -1.92%
53. O=C(Nc1ccc(-c2nc3ccccc3[nH]2)cc1)c1ccc(Cl)c(Cl)c1 [MMV665840]  -1.75%
54. CCCC(c1nnnn1C1CCCCC1)N1CCN(C(=O)c2ccco2)CC1.Cl (stereo not drawn) [MMV666093]  -0.54%
55. COc1ccc(C)c2sc(N(Cc3cccnc3)C(=O)c3ccc(C#N)cc3)nc12 [MMV001241]  -0.13%
56. COc1ccc2c(c1)C1(Nc3ccccc3-c3nc4ccccc4n31)C(=O)N2 (stereo not drawn) [MMV396749]  0.0365%
57. CCCCOC(=O)c1ccc(Nc2cc(C)nc3ccc(OC)cc23)cc1 [MMV665797]  0.71%
58. CC(C)(C)c1ccc(O)c(CNC2CCCCC2)c1 [MMV665785]  1.27%
59. COc1cc(C(=O)ON=C(N)Cc2cccc3ccccc23)cc(OC)c1OC [MMV666687]  1.57%
60. COC(=O)c1ccc(Cl)c2c1C1C=CCC1C(c1cccc3ccccc13)N2 (stereo not drawn) [MMV667489]  2.16%
61. Br.CCn1c2c(c(=N)c3c1CCC3)CCCC2 [MMV000340]  2.86%
62. COc1ccc(C(C)=O)cc1N1C(=O)C2C(C1=O)C1(c3ccccc3)C(=O)C2(c2ccccc2)C(c2ccc(C)cc2)=C1c1ccc(C)cc1 (stereo not drawn) [MMV007695]  4.56%
63. COc1ccc(Nc2nc(N/N=C/c3ccc(O)cc3)nc(Nc3ccc([N+](=O)[O-])cc3)n2)cc1 [MMV666689]  5.99%
64. OC(CNC1CCCC1)Cn1c2ccccc2c2ccccc21 (stereo not drawn) [MMV000848]  6.03%
65. Cc1cc(NC(=O)c2ccc(-c3ccccc3)cc2)no1 [MMV018984]  6.32%
66. Cc1cccc(N2C(=O)C3C(C2=O)C2(c4ccccc4)C(=O)C3(c3ccccc3)C(c3ccc4c(c3)OCO4)=C2c2ccc3c(c2)OCO3)c1 (stereo not drawn) [MMV007228]  7.95%
67. CCOC(=O)c1cnc2ccc(OC)cc2c1Nc1ccc(N2CCN(C)CC2)cc1 [MMV000704]  8.26%
68. Oc1ccc(C(=C(Cl)Cl)c2ccc(O)cc2)cc1 [MMV665949]  8.99%
69. Nc1ccc(-c2nc3cc(Cc4ccc5[nH]c(-c6ccc(N)cc6)nc5c4)ccc3[nH]2)cc1 [MMV665943]  9.49%
70. Cc1ccc(Nc2nc(NCCO)c3ccccc3n2)cc1C [MMV001038]  16.86%
71. O=C(Nc1cccc(-c2nc3ccccc3[nH]2)c1)c1cccc(NC(=O)c2ccco2)c1 [MMV665883]  21.02%
72. CCOc1ccc2nc(C)cc(Nc3ccc(Br)cc3)c2c1 [MMV006522]  30.79%
73. COc1ccc(C2c3ccc4ccccc4c3Oc3ncn(CCCN(C)C)c(=N)c32)cc1 (stereo not drawn) [MMV667491]  39.81%
74. Cc1nc2ccccc2c(O)c1CC=C(Cl)Cl [MMV665994]  45.96%
75. CCCOCc1cc(CN2CCN(c3cccc(Cl)c3)CC2)c(O)c2ncccc12 [MMV000787]  45.98%
76. OC(CNCC1CCCO1)Cn1c2ccc(Cl)cc2c2cc(Cl)ccc21 (stereo not drawn) [MMV396736]  50.77%
77. CC(C)CCNCC(O)Cn1c2ccccc2c2ccccc21.Cl (stereo not drawn) [MMV006787]  62.04%
78. COc1ccc(Nc2nc(NCc3ccccc3)c3ccccc3n2)cc1 [MMV000963]  109.36%
79. Cc1cc(Nc2ccc(OCc3ccccc3)cc2)nc2cc(O)ccc12 [MMV007181]  115.72%
80. CCCCCCn1c(=N)n(CC(O)COc2cccc(C)c2)c2ccccc21.Cl (stereo not drawn) [MMV000445]  130.28%
81. O=C1CC(O)(C(F)(F)C(F)(F)F)Oc2ccccc21 (stereo not drawn) [MMV000972]  141.59%

Source: PMC4788259 (PLoS Neglected Tropical Diseases, 2016)
